From patent US20230125482A1, “PROTEIN KINASE C MODULATORS” (Young Therapeutics, LLC, priority 2020, published 2023)
Where a SMILES comes first, the peptide text is derived from it. Where no end group is shown, it is not given here. The star is where a group is joined. Myristoyl = CCCCCCCCCCCCCC(=O)*

Experiments:
Solubility of peptide = type: physicochemical
isolated rat hearts = assay: Myocardial ischemia/reperfusion (I/R) injury in isolated rat hearts (Langendorff, ex vivo)
Description: Rat hearts were isolated from anesthetized male Sprague Dawley rats (275-325 g), placed in ice-cold Krebs' buffer, and placed onto a Langendorff heart apparatus and retro perfused with Krebs' buffer at a constant pressure of 80 mmHg (FIG. 1). A pressure transducer measures heart rate, left ventricular end-systolic pressure, end-diastolic pressure, dP/dt max, and dP/dt min. Coronary flow is measured via a flow probe connected to the perfusion tubing. Cardiac function was recorded throughout the experimental protocol using a pressure transducer inserted into the left ventricle (15 min baseline; global I(30 min)/R(50 min)). Selected peptides of TABLE 1 or vehicle (control [0.05 to 0.2% Dimethylsulfoxide) were given during the first 5 min of reperfusion. All peptide inhibitors or activators were dissolved in 28% DMSO and the final concentration of DMSO with peptides or without peptides (control I/R hearts) delivered to all hearts was 0.06%. Statistical analysis was performed using ANOVA and Bonferroni-Dunn post-hoc test.
At the end of the experimental protocol, hearts were removed from the Langendorff apparatus, and frozen for 30 min at −20° C. Hearts were sectioned (2 mm) from base to apex and placed in 1% TTC for ˜10 min at 37° C. Viable tissue stained red and infarcted tissue was unstained (pale). Total tissue sections were weighed and infarcted tissue was separated from viable tissue and weighed to determine infarct size (i.e. infarct tissue weight/total tissue weight).

[1] = test system: rat polymorphonuclear leukocytes (PMNs); assay: PMA-stimulated superoxide release in rat polymorphonuclear leukocytes (ferricytochrome c reduction, 550 nm); type: cell-based; conditions: for reduction of PMA (100 nM) induced leukocyte superoxide release: vs untreated PMA controls
Description: Change in absorbance at 550 nm via ferricytochrome c reduction by superoxide after stimulation with 100 nM phorbol 12-myristate 13-acetate (PMA) from time 0 to 390 sec was monitored in rat polymorphonuclear leukocytes (PMNs) (5×10^6) incubated for 15 min at 37° C. in the presence/absence of unconjugated PKCβII activator (PKCβII+) (SVEIWD (SEQ ID NO: 23)) or inhibitor (PKCβII−) (SLNPEWNET(SEQ ID NO: 5)), Myr−PKCβII+/−, Myr−PKCβII− scram (Myr-WNPESLNTE (Myristoylated SEQ ID NO: 17), Myr−TAT−PKC|II− (Myristoylated SEQ ID NO: 15) (all 20 μM) or superoxide dismutase (SOD; 10 μg/mL) (FIG. 7). Stock concentrations of compounds were dissolved in DMSO to yield a final concentration not greater that 0.2%. #: p<0.05 vs PMA, Native PKC βII+, Myr−PKC βII+ and Myr−TAT−PKC βII−; **: p<0.01 vs. all groups except Myr−TAT−PKC βII− or SOD; ++: p<0.01 vs. all groups. ANOVA post-hoc analysis was conducted using Bonferroni-Dunn.
The time course of changes in absorbance are summarized in FIGS. 8 (concentration response of Myr+TAT PKCβII−) and 9 (comparison of Myr+TAT+PKCβII− and Myr−PKCβII−, Myr−PKCβII− scrambled, and PKCβII− analogues and PMA controls). The peak response was reached by 300 seconds and maintained a plateau to 390 seconds, Myr+TAT+PKCβII− (20 μM; n=5) reduced phorbol 12-myristate 13-acetate (PMA, 100 nM) induced leukocyte superoxide release by 80%—a degree that was greater than all other study groups (p<0.01). In contrast, the Myr+PKCβII− (20 μM; n=27) reduced leukocyte superoxide release by only 30% (20 μM; n=27), again supporting the concept that the dual Myr−TAT conjugation produced greater results and reduced leukocyte superoxide release by ˜80% and ˜65% as compared to untreated PMA controls (n=74) and Myr+PKCβII− (20 μM; n=27), respectively.

[2] = 10 μM, baseline before ischemia
[3] = ex vivo rat I/R hearts, FIG. 4, concentration not given

CCCCCCCCCCCCCC(=O)N[C@@H](CCC(=O)O)C(=O)N[C@@H](C)C(=O)N[C@H](C(=O)N[C@@H](CO)C(=O)N[C@@H](CC(C)C)C(=O)N[C@@H](CCCCN)C(=O)N1CCC[C@H]1C(=O)N[C@H](C(=O)O)[C@@H](C)O)C(C)C [Myr + PKCε-, Myr-EAVSLKPT] (Myristoyl-EAVSLKPT-OH; C-terminus assumed)
solubility (Solubility of peptide): ≤ 10 mM | concentration for similar restoration of post-reperfused cardiac function relative to Myr+TAT+PKCε− (isolated rat hearts): 100 × | reduction of infarct size compared to control I/R hearts (isolated rat hearts; 10 μM): did not reduce infarct size | restoration of post-reperfused cardiac function (isolated rat hearts; 10 μM): ineffective | Final Coronary Flow (isolated rat hearts; 10 μM, 50 min post-reperfusion): 10 ± 1 mL/min | Final Heart Rate (isolated rat hearts; 10 μM, 50 min post-reperfusion): 233 ± 10 BPM | Final LVDP (isolated rat hearts; 10 μM, 50 min post-reperfusion): 46 ± 8 mmHg | Final LVEDP (isolated rat hearts; 10 μM, 50 min post-reperfusion): 58 ± 3 mmHg | Final LVESP (isolated rat hearts; 10 μM, 50 min post-reperfusion): 104 ± 6 mmHg | Final dP/dtmax (isolated rat hearts; 10 μM, 50 min post-reperfusion): 723 ± 84 mmHg/s | Final dP/dtmin (isolated rat hearts; 10 μM, 50 min post-reperfusion): −694 ± 167 mmHg/s | Infarct Size (isolated rat hearts; 10 μM, I(30 min)/R(50 min), infarct tissue weight/total tissue weight): 15 ± 4% | Initial Coronary Flow (isolated rat hearts; [2]): 17 ± 2 mL/min | Initial Heart Rate (isolated rat hearts; [2]): 258 ± 8 BPM | Initial LVDP (isolated rat hearts; [2]): 90 ± 5 mmHg | Initial LVEDP (isolated rat hearts; [2]): 6 ± 1 mmHg | Initial LVESP (isolated rat hearts; [2]): 95 ± 5 mmHg | Initial dP/dtmax (isolated rat hearts; [2]): 2294 ± 108 mmHg/s | Initial dP/dtmin (isolated rat hearts; [2]): −1548 ± 92 mmHg/s

Myr-YGRKKRRQRRRCCSLNPEWNET (Myristoyl-YGRKKRRQRRRCCSLNPEWNET; cysteine pairing not given here) [Myr+TAT+PKCβII−]
effect on PMA induced leukocyte superoxide release (in words) ([1]; 20 μM): virtually identical to the SOD standard | reduction of leukocyte superoxide release as compared to Myr+PKCβII− (20 μM) ([1]; 20 μM): ~65% | reduction of PMA (100 nM) induced leukocyte superoxide release ([1]; 20 μM): 80% | Infarct Size (isolated rat hearts; [3]): 5%

Myr-SLNPEWNET (Myristoyl-SLNPEWNET) [Myr+PKCβII−]
reduction of PMA (100 nM) induced leukocyte superoxide release ([1]; 20 μM): 30% | Infarct Size (isolated rat hearts; [3]): 13±2%

Myr-WNPESLNTE (Myristoyl-WNPESLNTE) [Myr−PKCβII− scrambled]
effect on PMA induced leukocyte superoxide release (in words) ([1]; 20 μM): increased | Infarct Size (isolated rat hearts; [3]): 22±2%

SLNPEWNET (Atificially synthesized) [PKCβII−]
effect on PMA induced leukocyte superoxide release (in words) ([1]; 20 μM): did not exert a significant inhibition

Superoxide dismutase [SOD, reference compound]
attenuation of leukocyte superoxide release ([1]; 10 ug/ml, positive control): ~94%
